Assay: Thermogravimetric analysis (TGA) of the crystal forms
Type: physicochemical
Protocol: 4) TGA method Instrument model: Netzsch TG 209F3, temperature range 30-400° C., scan rate 10K/min, purge gas flow rate 25 mL/min, shielding gas flow rate 15 mL/min.

thermal stability (conclusion from the DSC/TG experimental results)	temperature at which the crystal form begins to decompose according to the thermogravimetric analysis (TG, 30-400° C., scan rate 10K/min) [°C]	SMILES
good thermal stability	–	CNCc1ccc(-c2cc3cc(F)cc(C(N)=O)c3o2)cc1.Cl [crystal form A, 2-[4-(methylaminomethyl)phenyl]-5-fluoro-benzofuran-7-carboxamide hydrochloride]
–	250±20	CNCc1ccc(-c2cc3cc(F)cc(C(N)=O)c3o2)cc1.Cl [crystal form C, 2-[4-(methylaminomethyl)phenyl]-5-fluoro-benzofuran-7-carboxamide hydrochloride]

Reference: US11174237B2, “2-[4-(meihylaminomethyl)phenyl]-5-fluoro- benzofuran-7-carboxamide hydrochloride polymorph, preparation method therefor and application thereof” (SHANGHAI INSTITUTE OF MATERIA MEDICA, CHINESE ACADEMY OF …, priority 2017, dated 2021)
